SMILES strings stand for the structures. Where two headings read alike, the source gives them in different places.

What all share (type): cell-based
Test [1] has as its system cultured human mast cells (CHMC). In words: CHMC low cell density IgE activation: tryptase assay. The method, boiled down:
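Cultured human mast cells (1000-1500 cells/well, donor-dependent) equilibrated 1 hr at 37° C, then stimulated with anti-IgE for 30 min at 37° C. Tryptase released into the supernatant is measured with a fluorogenic tryptase substrate after 30 min at room temperature.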

For test [2] the test system is unchanged. In words: CHMC low cell density ionomycin activation: tryptase assay.
For test [3], the system named is Human Jurkat T-cells (clone N). Nature of the test: Jurkat T-cell activation (anti-TCR, CD69 upregulation). The method, boiled down:
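Jurkat cells in RPMI + 5% FBS preincubated with compound 1 h at 37 °C, then stimulated with anti-TCR C305 at 500 ng/ml for 20 h. CD69 surface expression stained with anti-CD69-APC and read by flow cytometry; IC50 versus solvent-only control.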

The mark [4] stands for this setting: Low Density, read-out: CHMC anti-IgE Tryptase.
[5] abbreviates: Low Density, read-out: CHMC Ionomycin Tryptase.
[6] abbreviates: Homo sapiens, Mast cell, Low Density, read-out: CHMC anti-IgE Tryptase.
Setting [7] is: Homo sapiens, Mast cell, Low Density, read-out: CHMC Ionomycin Tryptase.
The mark [8] stands for this setting: Low Density CHMC, anti-IgE activation, tryptase release, read-out: CHMC anti-IgE Tryptase IC50.
Where [9] appears, read: Low Density CHMC, ionomycin activation, tryptase release, read-out: CHMC Ionomycin Tryptase IC50.
Where [10] appears, read: low cell density, read-out: CHMC anti-IgE Tryptase.
Where [11] appears, read: low cell density, read-out: CHMC Ionomycin Tryptase.

For the compound `OCCOc1cccc(Nc2ncc(F)c(Nc3ccc4c(c3)OCCCO4)n2)c1` [Compound R935186], the IC50 in test [1] (setting [4]) is 0.211 µM; in test [2] (setting [5]), > 10 µM; in test [3], 1.09 µM.
With `COC(=O)[C@H](Cc1ccc(O)cc1)Nc1nc(N(C)C)ncc1F` [Compound R940110], the IC50 in test [1] (setting [4]), in test [2] (setting [5]) and in test [3] was > 10 µM in each case.
For the compound `Cc1ccc(Nc2nc(Cl)ncc2F)cc1C(F)(F)F` [Compound R926920], the IC50 in test [1] (setting [6]) is > 10 µM; in test [2] (setting [7]), > 10 µM; in test [3] (Homo sapiens, Jurkat) it was > 10 µM.
As to `CCOC(=O)c1cnc(N[C@@H](Cc2ccc(O)cc2)C(=O)OC)nc1N[C@@H](Cc1ccc(O)cc1)C(=O)OC` [Compound R926514], the IC50 in test [1] (setting [8]) is > 10 µM; in test [2] (setting [9]), > 10 µM; in test [3], 15.6 µM.
As to `CN1C(=O)COc2ccc(Nc3ncc(F)c(Nc4cccc(O)c4)n3)cc21` [Compound R908703], the IC50 is 0.63 µM in test [1] (setting [4]), > 10 µM in test [2] (setting [5]) and 1.4 µM in test [3].
Take `Fc1cnc(Cl)nc1Nc1ccc2c(c1)CN(c1nc(Cl)ncc1F)CC2` [Compound R926910]: the IC50 in test [1] (setting [6]) was > 10 µM; in test [2] (setting [7]), > 10 µM; in test [3] (Homo sapiens, Jurkat), > 10 µM.
On to `CN1C=COc2cc(Nc3ncc(F)c(Nc4cccc(O)c4)n3)ccc21` [Compound R908704], for which the values for the IC50 in test [1] (setting [4]), in test [2] (setting [5]) and in test [3] were 0.511 µM, > 10 µM and 3.04 µM, respectively.
As for `CCOC(=O)CCn1ncc2ccc(Nc3ncc(F)c(Nc4ccc(OC(C)C)cc4)n3)cc21` [Compound R935289], the IC50 in test [1] (setting [4]) is 1.69 µM; in test [2] (setting [5]), > 10 µM; in test [3], 5.34 µM.
In the case of `COC(=O)c1cc2cc(Nc3ncc(F)c(Nc4ccc(C(C)(C)C)cc4)n3)ccc2o1` [Compound R926477], the IC50 is 0.27 µM in test [1] (setting [8]), > 10 µM in test [2] (setting [9]) and > 10 µM in test [3].
`CC(C)(C)OC(=O)N1CCc2ccc(Nc3nc(Cl)ncc3F)cc2C1` [Compound R926911]: the IC50 in test [1] (setting [6]) is > 10 µM; in test [2] (setting [7]), > 10 µM; in test [3] (Homo sapiens, Jurkat) it was > 10 µM.
Regarding `CN(C)Cc1cc2cc(Nc3ncc(F)c(Nc4ccc(Cl)c(Cl)c4)n3)ccc2o1` [Compound R926980], the IC50 was found to be 0.68 µM in test [1] (setting [10]) and 5.49 µM in test [2] (setting [11]).
The matching figures for `COc1ccc(Nc2nc(Nc3ccc4[nH]ncc4c3)ncc2F)cc1Cl` [Compound R935459]: 0.343 µM and 4.7 µM.
Regarding `COc1cc(Nc2ncc(F)c(Nc3ccc4c(c3)NC(=O)C(CCO)O4)n2)cc(OC)c1` (racemic) [Compound R908950], the values for the IC50 in test [1] (setting [10]) and in test [2] (setting [11]) were 0.074 µM and 47.5 µM, respectively.
Regarding `Fc1cnc(Nc2ccc(OC(F)(F)F)c(Cl)c2)nc1Nc1ccc2c(c1)OCCO2` [Compound R927085], the results for the IC50 in test [1] (setting [10]) and in test [2] (setting [11]) were 7.43 µM and > 10 µM, respectively.
For `COc1cc(Nc2ncc(F)c(Nc3ccc4c(c3)C(N)CCO4)n2)cc(OC)c1` (racemic) [Compound R950426], the figures for the IC50 in test [1] (setting [10]) and in test [2] (setting [11]) were 0.142 µM and 30 µM, respectively.
For `CNC(=O)n1ccc2ccc(Nc3nc(Nc4cc(C)cc(C)c4)ncc3F)cc21` [Compound R927099], the IC50 in test [1] (setting [10]) and in test [2] (setting [11]) was > 10 µM each time.
For `O=C(COc1cccc(Nc2ncc(F)c(NC3CCC3)n2)c1)NC1CC1` [Compound R945393], the IC50 turned out to be 1.34 µM in test [1] (setting [10]) and 21.7 µM in test [2] (setting [11]).
For `COc1cc(Nc2ncc(F)c(Nc3ccc(OC)c(Cl)c3)n2)cc(OC)c1` [Compound R927066], in that order: 0.283 µM and 15.3 µM.
For `O=C(NCC(O)CO)C1Cc2cc(Nc3ncc(F)c(Nc4ccc(OC(F)(F)F)c(Cl)c4)n3)ccc2O1` (mixture of isomers) [Compound R926958], in that order: 0.353 µM and > 10 µM.
The matching figures for `OCCCn1ncc2cc(Nc3ncc(F)c(Nc4ccc(Cl)cc4)n3)ccc21` [Compound R935383]: 0.146 µM and > 10 µM.
With `CNC(=O)COc1cccc(Nc2ncc(F)c(Nc3ccc4c(c3)[C@@H](NC(=O)OCc3ccccc3)CCO4)n2)c1` [Compound R950417], the IC50 was 2.16 µM in test [1] (setting [10]) and > 10 µM in test [2] (setting [11]).
As for `COc1cc(Nc2ncc(F)c(Nc3ccc(OC(F)(F)F)c(Cl)c3)n2)cc(OC)c1` [Compound R927067], the figures for the IC50 in test [1] (setting [10]) and in test [2] (setting [11]) were 0.625 µM and 22.5 µM, respectively.
Consider `CNC(=O)CCn1cc2cc(Nc3ncc(F)c(Nc4ccc(Cl)c(Cl)c4)n3)ccc2n1` [Compound R935452], for which the results for the IC50 in test [1] (setting [10]) and in test [2] (setting [11]) were 0.213 µM and > 10 µM, respectively.
For the compound `COc1cc(Nc2nc(Nc3ccc4cnn(C)c4c3)ncc2F)ccc1F` [Compound R935449], the IC50 in test [1] (setting [10]) was found to be 0.372 µM; in test [2] (setting [11]) it was 7.8 µM.
The matching figures for `COc1ccc(Nc2ncc(F)c(Nc3ccc4c(c3)NC(=O)C(CCO)O4)n2)cc1Cl` (stereo not shown) [Compound R908951]: 0.085 µM and 5.48 µM.
The matching figures for `COc1ccc(Nc2ncc(F)c(Nc3ccc4cc[nH]c4c3)n2)cc1Cl` [Compound R927091]: 0.27 µM and > 10 µM.
On to `COc1cc(Nc2ncc(F)c(Nc3ccc4cc[nH]c4c3)n2)cc(OC)c1` [Compound R927089], for which the IC50 was 0.144 µM in test [1] (setting [10]) and > 10 µM in test [2] (setting [11]).
For `COc1ccc(Nc2nc(Nc3ccc4cn(C)nc4c3)ncc2F)cc1Cl` [Compound R935446], in that order: 0.395 µM and > 10 µM.
Consider `COc1cc(Nc2ncc(F)c(Nc3ccc4c(c3)NC(=O)C(C)(C)O4)n2)cc(C(F)(F)F)c1` [Compound R927065], for which the figures for the IC50 in test [1] (setting [10]) and in test [2] (setting [11]) were 0.235 µM and > 10 µM, respectively.
For `COc1ccc(Nc2nc(Nc3cc(C)c(OC)c(Cl)c3)ncc2F)cc1Cl` [Compound R926972], in that order: 5.29 µM and > 10 µM.
Regarding `CC1(C)Oc2ccc(Nc3ncc(F)c(Nc4ccc5[nH]ncc5c4)n3)cc2NC1=O` [Compound R935438], the IC50 stood at 0.414 µM in test [1] (setting [10]) and 23 µM in test [2] (setting [11]).
On to `Cn1cc2ccc(Nc3ncc(F)c(Nc4ccc(Cl)c(Cl)c4)n3)cc2n1` [Compound R935444], for which the figures for the IC50 in test [1] (setting [10]) and in test [2] (setting [11]) were 0.429 µM and > 10 µM, respectively.
Turning to `COc1ccc(Nc2nc(Nc3cccc(OCC(=O)NC4CC4)c3)ncc2F)cc1Cl` [Compound R926967], the IC50 was 0.259 µM in test [1] (setting [10]) and > 10 µM in test [2] (setting [11]).
The matching figures for `NC1CCOc2ccc(Nc3nc(Nc4ccc5cn[nH]c5c4)ncc3F)cc21` (racemic) [Compound R950423]: 0.05 µM and > 10 µM.
Consider `COc1cc(Nc2nc(Nc3ccc4cn(C)nc4c3)ncc2F)ccc1F` [Compound R935450], for which the IC50 in test [1] (setting [10]) was 0.494 µM; in test [2] (setting [11]), > 10 µM.
As for `CCOC(=O)CCn1ncc2cc(Nc3ncc(F)c(Nc4ccc(OC)c(Cl)c4)n3)ccc21` [Compound R935460], the IC50 in test [1] (setting [10]) worked out at 0.748 µM; in test [2] (setting [11]), 15.6 µM.
For the compound `CNC(=O)COc1cccc(Nc2ncc(F)c(Nc3ccc4c(c3)[C@H](NC(=O)OCc3ccccc3)CCO4)n2)c1` [Compound R950418], the IC50 is 1.67 µM in test [1] (setting [10]) and 9.09 µM in test [2] (setting [11]).
Turning to `CNC(=O)n1ccc2ccc(Nc3nc(Nc4ccc(OC)c(Cl)c4)ncc3F)cc21` [Compound R927100], the results for the IC50 in test [1] (setting [10]) and in test [2] (setting [11]) were 6.2 µM and > 10 µM, respectively.
The matching figures for `CNC(=O)CCn1ncc2cc(Nc3ncc(F)c(Nc4ccc(OC)c(Cl)c4)n3)ccc21` [Compound R935462]: 0.364 µM and > 10 µM.
For `CC(C)NC(=O)C1Cc2cc(Nc3ncc(F)c(Nc4ccc(OC(F)(F)F)c(Cl)c4)n3)ccc2O1` (stereo not shown) [Compound R926961], the IC50 was 1.2 µM in test [1] (setting [10]) and > 10 µM in test [2] (setting [11]).
As to `CNC(=O)COc1cccc(Nc2ncc(F)c(Nc3ccc4c(c3)C(N(C)C(=O)OC(C)(C)C)CCO4)n2)c1` (racemic) [Compound R950415], the results for the IC50 in test [1] (setting [10]) and in test [2] (setting [11]) were 5.19 µM and 16.3 µM, respectively.
For `CNCC1Cc2cc(Nc3ncc(F)c(Nc4ccc(OC)c(Cl)c4)n3)ccc2O1` (racemic) [Compound R927045], in that order: 0.535 µM and > 10 µM.
Regarding `CC1(C)C(=O)NC(=O)c2cc(Nc3nc(N[C@@H]4CCCC[C@H]4N)ncc3F)ccc21` [Compound R950442], the IC50 in test [1] (setting [10]) and in test [2] (setting [11]) was > 10 µM in each case.
For `CNC(=O)CCn1cc2cc(Nc3ncc(F)c(Nc4ccc5c(c4)NC(=O)C(C)(C)O5)n3)ccc2n1` [Compound R935453], the figures for the IC50 in test [1] (setting [10]) and in test [2] (setting [11]) were 0.15 µM and > 10 µM, respectively.
Regarding `O=C(COc1cccc(Nc2ncc(F)c(NC3CC3)n2)c1)NC1CCC1` [Compound R945364], the IC50 was 1 µM in test [1] (setting [10]) and > 10 µM in test [2] (setting [11]).
For `COc1ccc(Nc2ncc(F)c(Nc3ccc4c(c3)OCCO4)n2)cc1Cl` [Compound R927084], in that order: 0.466 µM and > 10 µM.
For `Cc1cc(Nc2ncc(F)c(Nc3ccc4c(c3)NC(=O)C(C)(C)O4)n2)cc(C)c1Cl` [Compound R927118], in that order: 0.065 µM and 3.49 µM.
In the case of `O=C(NCCO)C1Cc2cc(Nc3ncc(F)c(Nc4ccc(OC(F)(F)F)c(Cl)c4)n3)ccc2O1` (racemic) [Compound R926959], the IC50 is 0.3 µM in test [1] (setting [10]) and > 10 µM in test [2] (setting [11]).

(Values after patent US8158621B2, “Methods of treating or preventing autoimmune diseases with 2,4-pyrimidinediamine compounds” (Rigel Pharmaceuticals, Inc., priority 2002, dated 2012).)
